Article PMC8729174 (RSC Chemical Biology, 2021)

What was measured:
[1] = test system: sstr2-negative CHO cell line; settings: read-out: IC50 on CHO cells; cited from earlier work
[2] = target: sstr2; settings: read-out: Kd for sstr2; cited from earlier work
[3] = test system: Ar42J cells; test: Cell death kinetics; type: cell-based, rat; settings: MTS, n = 3, 6 at 60 nM, α-amanitin 1 at 10 μM

For “N-propargyl-dideoxy-amanitin [compound 4]”, the IC50 [1] is given as 1000 to 2000 nM.
For octreotate [compound 2], the Kd [2] is listed as about 0.4 nM.
For α-amanitin [compound 1], the “cell viability after 24 hours of incubation (in words)” value ([3]; 24 h) is listed as “remained fully viable”, the “cell viability after 48 hours of incubation (in words)” value ([3]; 48 h) is listed as “loss of cell viability was only observed after 48 hours” and the IC50 [1] is listed as 300 to 700 nM.
